Experimental data reported in US20230226231A1, “CONJUGATED AND LABELLED APELIN, PREPARATION AND USES THEREOF” (UNIVERSITE D'AIX MARSEILLE, priority 2020, published 2023).

Legend:
[1] = test system: Human colon adenocarcinoma xenografts (T84 cells); experiment: MicroPET imaging in ectopic mouse model of human colon adenocarcinoma, baseline and blocking; assay type: in vivo, mice
Procedure: Human colon adenocarcinoma xenografts were established by subcutaneous injections of 1×10^6 T84 cells into 6-week-old male Swiss nude mice (Charles River) under 2% isoflurane anesthesia.
PET images were acquired 1 h after IV injection on a Mediso NanoPET/CT under 2% isoflurane anesthesia.

APJ = biological target: T1, APJ (Homo sapiens, UniProt P35414); experiment: Autoradiography with blocking strategy on T84 cells; assay type: cell-based; conditions: 100-fold excess of unconjugated Apelin13(F13A)
T1 construct: host or cells: T84 human colon adenocarcinoma cells
T1 sequence (P35414 1-380): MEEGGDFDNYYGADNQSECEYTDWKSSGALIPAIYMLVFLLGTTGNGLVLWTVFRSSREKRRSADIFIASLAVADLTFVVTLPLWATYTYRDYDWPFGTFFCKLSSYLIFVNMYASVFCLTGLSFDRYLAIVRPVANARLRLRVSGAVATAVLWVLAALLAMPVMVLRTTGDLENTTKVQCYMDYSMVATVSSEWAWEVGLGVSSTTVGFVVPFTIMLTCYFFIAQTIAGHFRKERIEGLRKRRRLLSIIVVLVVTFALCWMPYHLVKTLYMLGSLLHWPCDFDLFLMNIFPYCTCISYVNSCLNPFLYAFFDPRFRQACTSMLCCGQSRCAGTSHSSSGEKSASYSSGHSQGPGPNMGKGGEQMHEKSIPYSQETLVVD
Procedure: A blocking strategy was performed on cells expressing the highest level of APJ. This strategy consists in adding a large excess (100-fold) of unconjugated peptide (Apelin13(F13A)) before adding inventors' product of interest. Unspecific tracer was eliminated by several washes. The remaining activity, considered as specifically bound to the target, was evaluated by autoradiography.
T84 cell line (EuroBioDev) was cultivated in DMEM-F12/Glutamax medium complemented with 10% fetal bovine serum decomplemented and 1% antimycotic-antibiotic mix. Cell lines were maintained in a humidified 5% CO2 incubator at 37° C.

T84 cells = experiment: In vitro efflux study on T84 cells; assay type: cell-based, human
Procedure: (§1) T84 cells were cultured as described in saturation binding experiments above.
Three minutes before the end of the incubation time, internalization was stopped on ice and the supernatant was removed. Each well was washed with 1 mL of ice-cold PBS. The membrane-bound fraction was retrieved in 2 mL sodium acetate buffer (20 mM, pH 5) for 2 min, each well was rinsed a second time with 1 mL ice-cold PBS and fresh culture medium was added. At each time point (10, 30, 60 and 120 minutes), the efflux was stopped by collecting the medium and washing cells twice with ice-cold PBS. Finally, cells were treated with NaOH (1 M). The radioactivity of the collected culture medium supernatant, the PBS wash fractions, and the total internalized fraction was measured in a gamma counter. The experiment was performed twice.

APJ receptor, T84 cells = biological target: T2, APJ receptor, T84 cells (Homo sapiens, UniProt P35414); experiment: In vitro internalization study in T84 cells; assay type: cell-based
T2 construct: host or cells: T84 human colon adenocarcinoma cells
T2 sequence (P35414 1-380): T1 sequence (P35414 1-380)
Procedure: as §1
Three minutes before the end of the incubation time, internalization was stopped on ice and the supernatant was removed. Internalization was then stopped by eliminating the supernatant and each well was washed with 3×250 μL of ice-cold PBS. The membrane-bound fraction was retrieved in 2×250 μL sodium acetate buffer (20 mM, pH 5) for 5 min. Finally, cells were treated with 500 μL of NaOH (1 M). The radioactivity of the membrane-bound fraction and the internalized fraction was measured in a gamma counter. The experiment was performed twice. To also verify receptor specificity, blocking experiments were performed by using 1 μM of apelin-13.

[2] = Hydrophilicity, water-octanol partition/distribution coefficient method; assay type: physicochemical; conditions: 1-octanol / phosphate-buffered saline pH 7.4
Procedure: Hydrophilicity of [^67Ga]Ga-AP747 was assessed by the water-octanol partition/distribution coefficient method. In a centrifuge tube, 500 μL of 1-octanol was added to 500 μL of phosphate-buffered saline (pH 7.4) containing the radiolabeled peptide (50 kBq). After equilibrium, the solution was vigorously stirred for 5 min at room temperature and subsequently centrifuged (4000 rpm, 5 min) to yield two immiscible layers. Aliquots of 100 μL were taken from each layer and the radioactivity in the samples was determined by a gamma counter (Perkin Elmer, Waltham, Mass., USA).

[3] = Stability of radiolabelled tracer in human serum; assay type: in vitro ADME
Procedure: Determination of radiochemical purity was done by radio-thin-layer chromatography (ITLC-SG) and was performed using a Ray-test miniGITA radio-TLC scanner detector (Straubenhardt, Ge) (eluents, 1:1 [v/v] mixture of 1M aqueous ammonium acetate solution and methanol and also in Trisodium Citrate 0,1M). Evaluation of ^68Ga-NODAGA-Apelin13(F13A) stability was performed in human serum at 60 and 120 min after radiosynthesis.

[4] = MicroPET biodistribution study in healthy mice; assay type: in vivo; conditions: IV injection, up to 2 h
Procedure: For biodistribution study in healthy mice (n=3), images were continuously acquired just after ^68Ga-NODAGA-Apelin13(F13A) IV injection with 5-6 MBq and recorded up to 2 h post injection on a Mediso NanoPET/CT under 2% isoflurane anesthesia.
(§2) Quantitative region-of-interest (ROI) analysis of the PET images was performed on attenuation- and decay-corrected PET images using InVicro—VivoQuant software and tissue uptake values are presented as an ischemic muscle to contralateral muscle ratio and as a percentage of the injected dose per gram of tissue (% ID/g) which was determined by decay correction for each sample normalized to a standard of known weight, which was representative of the injected dose.

Matrigel plug = experiment: MicroPET imaging in Matrigel mouse model; assay type: in vivo, mice
Procedure: These mice were also subcutaneously implanted with Matrigel (Dutscher) supplemented with 10% fetal bovine serum under 2% isoflurane anesthesia.
(§3) On hindlimb ischemia mouse model (n=8) and Matrigel mouse model (n=7) on day 1, 3, 7, 10, 13 and 21 post-surgery, mice were IV injected with 5-10 MBq of ^68Ga-NODAGA-Apelin13(F13A) under 2% isoflurane anesthesia.
(§4) PET images were acquired 60 min after IV injection on a Mediso Nanoscan PET/CT under 2% isoflurane anesthesia. On hindlimb ischemia mouse model and on day 1, 3, 7, 10, 13 and 21 post-surgery, mice were IV injected with 5-10 MBq of [^68Ga]Ga-NODAGA-RGD2 injection under 2% isoflurane anesthesia. PET images were acquired 60 min after IV injection on a Mediso Nanoscan PET/CT under 2% isoflurane anesthesia.
as §2

ischemic limb = experiment: MicroPET imaging in mouse model of hindlimb ischemia; assay type: in vivo, mice
Procedure: Unilateral hindlimb ischemia was performed on 9-week-old male Swiss mice (Janvier Labs) after femoral artery excision under 2% isoflurane anesthesia. LASER Doppler perfusion imaging (Perimed, Craponne, France) was used to assess revascularization from day 0 to day 21 after surgery. Perfusion results are expressed as a ratio of ischemic to non-ischemic limb blood flow. Hindlimb ischemic damage was quantified on Days 1, 3, 7, 10, 13 and 21.
as §3, §4, §2

[5] = PET signal ratio on day 7, corrected with non-ischemic limb

Compound: CSCC[C@H](NC(=O)[C@@H]1CCCN1C(=O)CNC(=O)[C@H](CCCCN)NC(=O)[C@H](Cc1c[nH]cn1)NC(=O)[C@H](CO)NC(=O)[C@H](CC(C)C)NC(=O)[C@H](CCCNC(=N)N)NC(=O)[C@@H]1CCCN1C(=O)[C@H](CCCNC(=N)N)NC(=O)[C@@H](N)CCC(N)=O)C(=O)N1CCC[C@H]1C(=O)N[C@@H](C)C(=O)O [Apelin13(F13A), reference compound]
- tolerance of cold peptide in in vivo blocking experiments ([1]; due to cardiovascular effects of Apelin): bad tolerance

Compound: AP747: AP747 corresponds to NODAGA-Apelin13(F13A); used radiolabelled in the autoradiography
- remaining activity recorded by autoradiography in blocking condition compared to classic conditions (APJ): significantly reduced

Compound: [^67Ga]Ga-AP747: NODAGA-Apelin13(F13A) radiolabelled with gallium-67, used for in vitro binding, internalization and efflux studies
- efflux: fraction of the total binding externalized (T84 cells; 10 minutes post-internalization): 66.7±1.7%
- efflux: fraction of the total binding externalized (T84 cells; at 2 h): 81.2±2.9%
- internalized fraction of the cell associated radioactivity (maximum) (APJ receptor, T84 cells; 37° C., at 60 min): 79.7±7.3%
- receptor specific membrane-bound fraction (APJ receptor, T84 cells; at any time point (10, 30, 60 min)): < 5%
- log D7.4 [2]: −3.03±0.02

Compound: [^68Ga]Ga-NODAGA-Apelin13(F13A): Apelin-13(F13A) peptide (SEQ ID NO: 5) conjugated to chelator NODAGA and radiolabelled with gallium-68; PET tracer of APJ
- radiochemical purity after incubation in human serum ([3]; human serum, until two hours post-incubation, n=3): didn't lead to significant tampering
- stability in serum ([3]; serum): up to 2 hours
- excretion and organ accumulation (PET signal quantification in organs) ([4]; n=3): fast and mainly urinary excretion without noticeable accumulation in liver, lungs or brain
- excretion and organ accumulation (PET signal quantification in organs) ([4]; n=3, listed as (F13A)Apelin-NODAGA-^68Ga): Rapid urinary and hepatic elimination
- PET signal in Matrigel compared with [68Ga]Ga-NODAGA-RGD2, globally over experiment period (Matrigel plug; day 1 to day 21): significantly superior
- accumulation in Matrigel plug compared with [68Ga]Ga-NODAGA-RGD2 (Matrigel plug; day 10, day 13 and day 21, PET 60 min after IV injection): significantly higher
- partial blocking of PET signal in in vivo blocking experiments ([1]; pre-saturation with cold Apelin13(F13A), angiogenic and tumoral models): about 50%
- relation of PET signal in ischemic limb to day-input function (LASER Doppler Day7/Day0) (ischemic limb; PET signal on day 7, corrected with non-ischemic limb): not linked
- correlation of PET signal in ischemic limb with LASER-Doppler signal at day of surgery (ischemic limb; [5]): significantly negatively correlated
- relation of PET signal in ischemic limb to reperfusion (LASER-Doppler Day 21/Day 0) (ischemic limb; [5]): more important when reperfusion is longer
- PET signal in ischemic limb compared with [68Ga]Ga-NODAGA-RGD2 (ischemic limb; at peak): notably better
- day of peak PET signal in ischemic limb (ischemic limb; ischemic limb corrected by non-ischemic limb, post-surgery): 7 days
